Source: patent publication US20070078174A1 (priority 2005, published 2007)
Structures can show the parent of a compound that is named as a salt.

What was measured:
[1] = clinical; conditions: human, plasma, other: sublingual and oral
Description: Two groups were randomized and there was a one week washout period between administrations. The volunteers were in the fasted state when the drugs were administered. […] The oral formulation was administered with a glass of water. […] The samples were blinded from the analysts. […]

[2] = clinical; conditions: male, human, plasma
Description: The study was a randomized open label study with a four period comparative crossover study. […] The blood samples were taken at “0” hour (pre-dosing), 10 min, 20 min, 40 min, 1.0.
The study contained twelve (12) male subjects aged 18-55 years. […] However the available pharmacokinetic data from all twelve (12) subjects was included in the statistical analysis, as required by the study protocol.
The study administered the single dosages in four different forms.

[3] = cited from earlier work

half-life [1]: 1.5 to 1.7 h
half-life [2]: 1.5 to 1.7 h
Compound: Clc1ccc2nsnc2c1NC1=NCCN1 [tizanidine, Tizanidine hydrochloride]
absolute bioavailability ([3]; administered orally, extensive hepatic first pass metabolism): about 40%
bioavailability ([3]; lowered by first-pass hepatic metabolism): 22-40%
terminal half life ([3]; reported): 2.5 h
